Results reported in PubChem BioAssay (NCI).
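Following 48 hours of exposure in 96-well plates, responses at five concentrations were used to interpolate endpoints linearly. At the GI50, growth is halved. TGI is the concentration that stops growth completely.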

Legend:
Assay in all cases: inhibition of tumour cell growth, NCI panel, 48 h
[1] = test system: MDA-MB-231 breast
[2] = test system: PC-3 prostate
[3] = test system: M14 melanoma
[4] = test system: HCT-116 colon
[5] = test system: LOX IMVI melanoma
[6] = test system: RPMI-8226 leukemia
[7] = test system: SF-539 CNS
[8] = test system: HL-60(TB) leukemia
[9] = test system: OVCAR-5 ovarian
[10] = test system: SF-268 CNS
[11] = test system: SK-MEL-28 melanoma
[12] = test system: CAKI-1 renal
[13] = test system: T-47D breast
[14] = test system: HCT-15 colon
[15] = test system: HT29 colon
[16] = test system: SNB-19 CNS
[17] = test system: SK-MEL-5 melanoma
[18] = test system: A549 NSCLC
[19] = test system: COLO 205 colon
[20] = test system: SW-620 colon
[21] = test system: SR leukemia
[22] = test system: U251 CNS
[23] = test system: HS 578T breast
[24] = test system: UO-31 renal
[25] = test system: EKVX NSCLC
[26] = test system: NCI-H226 lung
[27] = test system: HOP-62 NSCLC
[28] = test system: NCI/ADR-RES ovarian
[29] = test system: BT-549 breast
[30] = test system: TK-10 renal
[31] = test system: UACC-257 melanoma
[32] = test system: MDA-MB-435
[33] = test system: DU-145 prostate
[34] = test system: OVCAR-4 ovarian
[35] = test system: RXF 393 renal
[36] = test system: NCI-H460 lung
[37] = test system: 786-0 renal
[38] = test system: HCC-2998 colon
[39] = test system: ACHN renal
[40] = test system: K-562 leukemia
[41] = test system: MOLT-4 leukemia
[42] = test system: SK-OV-3 ovarian
[43] = test system: OVCAR-3 ovarian
[44] = test system: SNB-75 CNS
[45] = test system: MALME-3M melanoma
[46] = test system: KM12 colon
[47] = test system: MCF7 breast
[48] = test system: SK-MEL-2 melanoma
[49] = test system: HOP-92 NSCLC
[50] = test system: CCRF-CEM leukemia
[51] = test system: OVCAR-8 ovarian
[52] = test system: SN12C renal
[53] = test system: IGROV1 ovarian
[54] = test system: A498 renal
[55] = test system: UACC-62 melanoma
[56] = test system: SF-295 CNS
[57] = test system: NCI-H522 lung
[58] = test system: NCI-H23 lung

## CCn1c(-c2nonc2N)nc2c(C#CC(C)(C)O)nc(CN3CCCC3)cc21
[1]
  GI50: > 25 µM
  TGI: > 25 µM
[2]
  GI50: > 25 µM
  TGI: > 25 µM
[3]
  GI50: > 25 µM
  TGI: > 25 µM
[4]
  GI50: > 25 µM
  TGI: > 25 µM
[5]
  GI50: > 25 µM
  TGI: > 25 µM
[6]
  GI50: > 25 µM
  TGI: > 25 µM
[7]
  GI50: 16.9 µM
  TGI: > 25 µM
[8]
  GI50: > 25 µM
  TGI: > 25 µM
[9]
  GI50: > 25 µM
  TGI: > 25 µM
[10]
  GI50: > 25 µM
  TGI: > 25 µM
[11]
  GI50: > 25 µM
  TGI: > 25 µM
[12]
  GI50: > 25 µM
  TGI: > 25 µM
[13]
  GI50: 6.84 µM
  TGI: > 25 µM
[14]
  GI50: > 25 µM
  TGI: > 25 µM
[15]
  GI50: > 25 µM
  TGI: > 25 µM
[16]
  GI50: > 25 µM
  TGI: > 25 µM
[17]
  GI50: > 25 µM
  TGI: > 25 µM
[18]
  GI50: > 25 µM
  TGI: > 25 µM
[19]
  GI50: > 25 µM
  TGI: > 25 µM
[20]
  GI50: > 25 µM
  TGI: > 25 µM
[21]
  GI50: > 25 µM
  TGI: > 25 µM
[22]
  GI50: > 25 µM
  TGI: > 25 µM
[23]
  GI50: 7.39 µM
  TGI: > 25 µM
[24]
  GI50: > 25 µM
  TGI: > 25 µM
[25]
  GI50: > 25 µM
  TGI: > 25 µM
[26]
  GI50: > 25 µM
  TGI: > 25 µM
[27]
  GI50: > 25 µM
  TGI: > 25 µM
[28]
  GI50: > 25 µM
  TGI: > 25 µM
[29]
  GI50: 18.8 µM
  TGI: > 25 µM
[30]
  GI50: 17.9 µM
  TGI: > 25 µM
[31]
  GI50: > 25 µM
  TGI: > 25 µM
[32]
  GI50: > 25 µM
  TGI: > 25 µM
[33]
  GI50: > 25 µM
  TGI: > 25 µM
[34]
  GI50: > 25 µM
  TGI: > 25 µM
[35]
  GI50: 6.31 µM
  TGI: > 25 µM
[36]
  GI50: > 25 µM
  TGI: > 25 µM
[37]
  GI50: 18.7 µM
  TGI: > 25 µM
[38]
  GI50: > 25 µM
  TGI: > 25 µM
[39]
  GI50: > 25 µM
  TGI: > 25 µM
[40]
  GI50: > 25 µM
  TGI: > 25 µM
[41]
  GI50: > 20.4 µM
  TGI: > 25 µM
[42]
  GI50: > 25 µM
  TGI: > 25 µM
[43]
  GI50: > 25 µM
  TGI: > 25 µM
[44]
  GI50: 8.29 µM
  TGI: > 25 µM
[45]
  GI50: > 25 µM
  TGI: > 25 µM
[46]
  GI50: > 25 µM
  TGI: > 25 µM
[47]
  GI50: 20 µM
  TGI: > 25 µM
[48]
  GI50: > 25 µM
  TGI: > 25 µM
[49]
  GI50: > 25 µM
  TGI: > 25 µM
[50]
  GI50: 20.5 µM
  TGI: > 25 µM
[51]
  GI50: > 25 µM
  TGI: > 25 µM
[52]
  GI50: > 25 µM
  TGI: > 25 µM
[53]
  GI50: 9.23 µM
  TGI: > 25 µM
[54]
  GI50: 1.39 µM
  TGI: 14.6 µM
[55]
  GI50: > 25 µM
  TGI: > 25 µM
[56]
  GI50: 10.9 µM
  TGI: > 25 µM
[57]
  GI50: 18.3 µM
  TGI: > 25 µM
[58]
  GI50: > 25 µM
  TGI: > 25 µM
